Experimental data from patent publication US20030138423A1, “Method of treating inflammation with HIV-1 protease inhibitors and their derivatives” (CEDARS-SINAI MEDICAL CENTER, priority 2001, published 2003).
Entries after “also recorded” stand apart in the source; their conditions may differ.

How the values were obtained:
[1] = system: IL-6; experiment: LPS-induced IL-6 luciferase activation in HMEC; format: cell-based, human; conditions: 1-hour pretreatment
Text: Interleukin-6 (IL-6) is a known proinflammatory cytokine that mediates development of LPS-induced sepsis and septic shock.

[2] = system: TNF-α; experiment: LPS-induced TNF-α production in THP-LTR-Luc cells, ELISA; format: cell-based; conditions: THP-LTR-Luc cells (FIG. 9 legend)
Method: After five hours of LPS stimulation, supernatants from HMEC were analyzed for TNF-α production by using an ELISA kit (obtained from R&D Systems; Minneapolis, Minn.) according to manufacturer's instructions. All data for TNF-α represent the average of triplicate samples ±S.D. Each experiment was repeated at least twice.

[3] = system: NF-κB; experiment: TNF-α-induced NF-κB activation in HMEC; format: cell-based, human; conditions: one-hour pretreatment, TNF-α 100 ng/ml
[4] = biological target: 20S proteasome (Mus musculus, UniProt O55234); conditions: literature; cited from earlier work
[5] = system: NF-κB; experiment: LPS-induced NF-κB luciferase activation in HMEC; conditions: pretreatment before LPS, nelfinavir 1, 3, 6 μg/ml
[6] = system: lymphocytic choriomeningitis virus (LCMV); conditions: mice infected with LCMV, literature; cited from earlier work
[7] = system: MB-1 (X) and/or LMP7 proteasome subunits; conditions: vinyl sulfone inhibitor 125I-NLVS, literature; cited from earlier work
[8] = system: NF-κB; experiment: PSM-induced NF-κB luciferase activation in HMEC; format: cell-based, human; conditions: one-hour pretreatment
[9] = system: NF-κB; experiment: STF-induced NF-κB luciferase activation in HMEC; format: cell-based, human; conditions: one-hour pretreatment
[10] = system: IκB-α; experiment: LPS-induced IκB-α degradation in HMEC, Western blot; format: cell-based, human; conditions: HMEC pretreated one hour, LPS 30, 60, 90 minutes
Method: Conditioned endothelial cells were lysed for 30 minutes on ice in a lysis buffer containing 0.1 mM ethylenediamine tetra-acetic acid (“EDTA,” available from Sigma), 10 mM NaF, 1 mM Na3VO4, 0.1% Triton X-100, 20 mM Tris-HCl (pH 7.5), and 1 μg/ml each of the protease inhibitors pepstatin, leupeptin, aprotinin, antipain, and chymostatin (all available from Roche).
Following lysis, cell debris was removed by centrifugation (14,000×g, 4° C., 1-2 minutes). Protein concentrations were determined using the Bradford assay. 50 μg of total protein was added in Laemmli buffer, boiled for 5 minutes, resolved by 10% sodium dodecyl sulphate polyacrylamide gel electrophoresis (“SDS-PAGE”) in Tris/glycine/SDS buffer (25 mM Tris, 250 mM glycine, 0.1% SDS), and blotted onto Immunobilon P transfer membranes (obtained from Amersham Pharmacia Biotech UK Ltd.; Buckinghamshire, England, hereinafter “Amersham”) (100 V, 1.5 hours, 4° C.). […] Membranes were thereafter and washed five times in PBST, and bands were detected using ECL reagents (obtained from Amersham) according to manufacturer's description.
Upon exposure of immune system cells to bacterial and mycobacterial antigens, IκB-α degradation is the key step before NF-κB activation. We assessed the effect of nelfinavir pretreatment of HMEC on LPS-induced IκB-α degradation. […] IκB-α degradation was assessed by Western Blot analysis for phosphorylated IκB-α.

[11] = system: HMEC; experiment: LDH release (cell death) in HMEC; format: cell-based, human; conditions: pretreatment prior to LPS stimulation
Method: For the quantification of nelfinavir-induced cell death, lactate dehydrogenase (LDH) activity in HMEC culture supernatants was measured with a cytotoxicity detection kit (obtained from Roche Diagnostics; Indianapolis, Ind., hereinafter “Roche”) according to manufacturer's instructions. Percentage of LDH activity in the supernatants was calculated according to the following: [(Experimental Value—LDH activity released from untreated cells)/(Maximum Releasable LDH Activity in the Cells by 1% Triton X-100-LDH Activity Released from Untreated Cells)]×100.

[12] = biological target: T1, erythrocyte 20S proteasome (Homo sapiens, UniProt P28074); experiment: 20S Proteasome Assay, Suc-LLVY-AMC substrate; format: biochemical; conditions: SDS-preactivated erythrocyte 20S proteasome
T1 construct: purchased Biomol Research Laboratories, Inc; host or cells: erythrocytes (purified native complex)
Method: The effect of nelfinavir on 20S proteasome activity was assessed using a 20S Proteasome Assay Kit (obtained from Biomol Research Laboratories, Inc.; Plymouth Meeting, Pa.) according to manufacturer's instructions. Briefly, erythrocyte 20S proteasome that is preactivated by SDS was added to Suc-LLVY-AMC fluorogenic peptide substrate, which is used to measure the chymotrypsin like peptidase activity, with or without nelfinavir. A proteasome inhibitor, lactacystin, was included as a control. The microtiter plate was read at an approximate excitation of 360 nm and at emission 460 nm. All data represent the average of triplicate samples ±S.D.

[13] = system: HIV-LTR; experiment: LPS-induced HIV-LTR luciferase activation in HMEC; conditions: nelfinavir 1, 3, 6 μg/ml (FIG. 2) or 0.5, 2, 4 μg/ml (FIG. 6)

CC(C)(C)NC(=O)[C@@H]1C[C@@H]2CCCC[C@@H]2CN1C[C@@H](O)[C@H](Cc1ccccc1)NC(=O)[C@H](CC(N)=O)NC(=O)c1ccc2ccccc2n1 [saquinavir]
LPS-induced IL-6 luciferase activation [1]: blocked LPS-induced IL-6 luciferase activation | LPS-induced TNF-α production [2]: blocked TNF-α production | TNF-α-induced NF-κB activation [3]: down-regulated | chymotrypsin-like activity of the 20S proteasome [4]: inhibited chymotrypsin-like activity to a significantly lesser degree | LPS-induced NF-κB activation (percent NF-κB luciferase activity) [5]: blocked LPS-induced NF-κB activation; also recorded: more potent than indinavir; also recorded: down-regulation of LPS-induced NF-κB activation

CC(C)c1nc(CN(C)C(=O)N[C@H](C(=O)N[C@@H](Cc2ccccc2)C[C@H](O)[C@H](Cc2ccccc2)NC(=O)OCc2cncs2)C(C)C)cs1 [ritonavir]
LPS-induced IL-6 luciferase activation [1]: blocked LPS-induced IL-6 luciferase activation | LPS-induced TNF-α production [2]: blocked production to a lesser extent | TNF-α-induced NF-κB activation [3]: down-regulated | chymotrypsin-like activity of the 20S proteasome [4]: selectively inhibit the chymotrypsin-like activity of the 20S proteasome | LCMV replication [6]: not affected | protection of proteasome subunits from covalent active site modification [7]: protected the MB-1 (X) and/or LMP7 proteasome subunits from covalent active site modification | LPS-induced NF-κB activation (percent NF-κB luciferase activity) [5]: blocked LPS-induced NF-κB activation; also recorded: more potent than indinavir; also recorded: down-regulation of LPS-induced NF-κB activation

CC(C)(C)NC(=O)[C@@H]1CN(Cc2cccnc2)CCN1C[C@@H](O)C[C@@H](Cc1ccccc1)C(=O)N[C@H]1c2ccccc2C[C@H]1O [indinavir]
LPS-induced IL-6 luciferase activation [1]: blocked LPS-induced IL-6 luciferase activation | LPS-induced TNF-α production [2]: blocked TNF-α production | chymotrypsin-like activity of the 20S proteasome [4]: no inhibition at all

Cc1c(O)cccc1C(=O)N[C@@H](CSc1ccccc1)[C@H](O)CN1C[C@H]2CCCC[C@H]2C[C@H]1C(=O)NC(C)(C)C [nelfinavir]
PSM-induced NF-κB activation (percent NF-κB luciferase activity) [8]: blocked NF-κB activation; also recorded: blocked both STF and PSM | STF-induced NF-κB activation (percent NF-κB luciferase activity) [9]: blocked NF-κB activation; also recorded: blocked both STF and PSM | LPS-induced IκB-α degradation [10]: markedly less LPS-induced IκB-α degradation; also recorded: delayed the degradation; also recorded: a delay in LPS-induced IκB-α degradation | cell death (LDH release) [11]: without inducing apoptosis or death of the cells; also recorded: did not induce cell death; also recorded: not induced | LPS-induced IL-6 luciferase activation [1]: blocked LPS-induced IL-6 luciferase activation | LPS-induced TNF-α production [2]: blocked production to a lesser extent | TNF-α-induced NF-κB activation [3]: down-regulated | chymotrypsin-like activity of 20S proteasome [12]: did not inhibit the chymotrypsin-like activity of 20s proteasome | chymotrypsin-like activity of the 20S proteasome [4]: no inhibition at all | LPS-induced NF-κB activation (percent NF-κB luciferase activity) [5]: blocked LPS-induced NF-κB activation in a dose-dependent manner; also recorded: decreased the NF-κB activity | LPS-induced HIV-LTR activation (percent HIV-LTR luciferase activity) [13]: blocked LPS-induced HIV-LTR activation in a dose-dependent manner
